Test results from ChEMBL document CHEMBL3044631, “Synthesis of 2-[4,5-dimethyl-1-(phenylamino)-1H-imidazol-2-ylthio]-N-(thiazole-2-yl)acetamide derivatives and their anticancer activities” (2013).

Experiments:
Format in all cases: functional
UACC-62 [1] = experiment: Anticancer activity against Homo sapiens (human) UACC62 cells assessed as cell growth promotion at 10 uM after 48 hr by SRB assay
SK-MEL-5 = experiment: Anticancer activity against Homo sapiens (human) SK-MEL-5 cells assessed as cell growth promotion at 10 uM after 48 hr by SRB assay
SN12C = experiment: Anticancer activity against Homo sapiens (human) SN12C cells assessed as cell growth promotion at 10 uM after 48 hr by SRB assay
CAKI-1 = experiment: Anticancer activity against Homo sapiens (human) CAKI-1 cells assessed as cell growth promotion at 10 uM after 48 hr by SRB assay
786-0 = experiment: Anticancer activity against Homo sapiens (human) 786-0 cells assessed as cell growth promotion at 10 uM after 48 hr by SRB assay
A498 [2] = experiment: Anticancer activity against Homo sapiens (human) A498 cells assessed as cell growth promotion at 10 uM after 48 hr by SRB assay
OVCAR-8 = experiment: Anticancer activity against Homo sapiens (human) OVCAR8 cells assessed as cell growth promotion at 10 uM after 48 hr by SRB assay
OVCAR-3 = experiment: Anticancer activity against Homo sapiens (human) OVCAR3 cells assessed as cell growth promotion at 10 uM after 48 hr by SRB assay
HCT-15 = experiment: Anticancer activity against Homo sapiens (human) HCT15 cells assessed as cell growth promotion at 10 uM after 48 hr by SRB assay
HCT-116 = experiment: Anticancer activity against Homo sapiens (human) HCT116 cells assessed as cell growth promotion at 10 uM after 48 hr by SRB assay
NCI-H23 = experiment: Anticancer activity against Homo sapiens (human) NCI-H23 cells assessed as cell growth promotion at 10 uM after 48 hr by SRB assay
EKVX = experiment: Anticancer activity against Homo sapiens (human) EKVX cells assessed as cell growth promotion at 10 uM after 48 hr by SRB assay
A549 = experiment: Anticancer activity against Homo sapiens (human) A549/ATCC cells assessed as cell growth promotion at 10 uM after 48 hr by SRB assay
RPMI-8226 = experiment: Anticancer activity against Homo sapiens (human) RPMI8226 cells assessed as cell growth promotion at 10 uM after 48 hr by SRB assay
SK-MEL-28 = experiment: Anticancer activity against Homo sapiens (human) SK-MEL-28 cells assessed as cell growth promotion at 10 uM after 48 hr by SRB assay
U-251 = experiment: Anticancer activity against Homo sapiens (human) U251 cells assessed as cell growth promotion at 10 uM after 48 hr by SRB assay
SF-268 = experiment: Anticancer activity against Homo sapiens (human) SF268 cells assessed as cell growth promotion at 10 uM after 48 hr by SRB assay
KM12 [3] = experiment: Anticancer activity against Homo sapiens (human) KM12 cells assessed as cell growth promotion at 10 uM after 48 hr by SRB assay
NCI-H460 = experiment: Anticancer activity against Homo sapiens (human) NCI-H460 cells assessed as cell growth promotion at 10 uM after 48 hr by SRB assay
KM12 [4] = experiment: Anticancer activity against Homo sapiens (human) KM12 cells after 48 hr by SRB assay; conditions: KM12, 48 h
NCI-H522 = experiment: Anticancer activity against Homo sapiens (human) NCI-H522 cells after 48 hr by SRB assay; conditions: NCI-H522, 48 h
HOP-62 = experiment: Anticancer activity against Homo sapiens (human) HOP62 cells after 48 hr by SRB assay; conditions: HOP-62, 48 h
BT-549 = experiment: Anticancer activity against Homo sapiens (human) BT549 cells after 48 hr by SRB assay; conditions: BT-549, 48 h
MDA-MB-231 = experiment: Anticancer activity against Homo sapiens (human) MDA-MB-231/ATCC cells after 48 hr by SRB assay; conditions: MDA-MB-231, 48 h
SK-OV-3 = experiment: Anticancer activity against Homo sapiens (human) SKOV3 cells after 48 hr by SRB assay; conditions: SK-OV-3, 48 h
OVCAR-5 = experiment: Anticancer activity against Homo sapiens (human) OVCAR5 cells after 48 hr by SRB assay; conditions: OVCAR-5, 48 h
IGROV-1 = experiment: Anticancer activity against Homo sapiens (human) IGROV1 cells after 48 hr by SRB assay; conditions: IGROV-1, 48 h
UACC-257 = experiment: Anticancer activity against Homo sapiens (human) UACC257 cells after 48 hr by SRB assay; conditions: UACC-257, 48 h
UACC-62 [5] = experiment: Anticancer activity against Homo sapiens (human) UACC62 cells after 48 hr by SRB assay; conditions: UACC-62, 48 h
MDA-MB-435 = experiment: Anticancer activity against Homo sapiens (human) MDA-MB-435 cells after 48 hr by SRB assay; conditions: MDA-MB-435, 48 h
M14 = experiment: Anticancer activity against Homo sapiens (human) M14 cells after 48 hr by SRB assay; conditions: M14, 48 h
LOX IMVI = experiment: Anticancer activity against Homo sapiens (human) LOXIMVI cells after 48 hr by SRB assay
TK-10 = experiment: Anticancer activity against Homo sapiens (human) TK10 cells after 48 hr by SRB assay; conditions: TK-10, 48 h
ACHN = experiment: Anticancer activity against Homo sapiens (human) ACHN cells after 48 hr by SRB assay
A498 [6] = experiment: Anticancer activity against Homo sapiens (human) A498 cells after 48 hr by SRB assay; conditions: A498, 48 h

## Cc1nc(SCC(=O)Nc2nccs2)n(Nc2ccc(Cl)cc2)c1C
UACC-62 [1]
  Activity: 104.39%
SK-MEL-5
  Activity: 84.95%
SN12C
  Activity: 96.39%
CAKI-1
  Activity: 101.14%
786-0
  Activity: 111.66%
A498 [2]
  Activity: 101.93%
OVCAR-8
  Activity: 104.9%
OVCAR-3
  Activity: 117.12%
HCT-15
  Activity: 102.77%
HCT-116
  Activity: 94.47%
NCI-H23
  Activity: 109.41%
EKVX
  Activity: 123.2%
A549
  Activity: 101.96%
RPMI-8226
  Activity: 104.54%
SK-MEL-28
  Activity: 111.02%
U-251
  Activity: 108.53%
SF-268
  Activity: 112.74%
KM12 [3]
  Activity: 113.75%
NCI-H460
  Activity: 106%

## CCOC(=O)c1csc(NC(=O)CSc2nc(C)c(C)n2Nc2ccc(C)cc2)n1
UACC-62 [1]
  Activity: 62.91%
SK-MEL-5
  Activity: 47.48%
SN12C
  Activity: 62.75%
CAKI-1
  Activity: 80.52%
786-0
  Activity: 83.82%
A498 [2]
  Activity: 90.47%
OVCAR-8
  Activity: 82.64%
OVCAR-3
  Activity: 108.5%
HCT-15
  Activity: 98.05%
HCT-116
  Activity: 68.84%
NCI-H23
  Activity: 74.71%
EKVX
  Activity: 99.66%
A549
  Activity: 82.13%
RPMI-8226
  Activity: 72.05%
SK-MEL-28
  Activity: 80.17%
U-251
  Activity: 76.07%
SF-268
  Activity: 102.22%
KM12 [3]
  Activity: 108.43%
NCI-H460
  Activity: 109.11%

## COc1ccc(Nn2c(SCC(=O)Nc3nccs3)nc(C)c2C)cc1
UACC-62 [1]
  Activity: 95.78%
SK-MEL-5
  Activity: 102.75%
SN12C
  Activity: 98.23%
CAKI-1
  Activity: 90.35%
786-0
  Activity: 100.29%
A498 [2]
  Activity: 99.48%
OVCAR-8
  Activity: 103.25%
OVCAR-3
  Activity: 113.42%
HCT-15
  Activity: 100.06%
HCT-116
  Activity: 106.93%
NCI-H23
  Activity: 106.56%
EKVX
  Activity: 108.98%
A549
  Activity: 104.98%
RPMI-8226
  Activity: 102.22%
SK-MEL-28
  Activity: 113.96%
U-251
  Activity: 104.49%
SF-268
  Activity: 103.59%
KM12 [3]
  Activity: 96.74%
NCI-H460
  Activity: 108.22%

## Cc1nc(SCC(=O)Nc2nccs2)n(Nc2ccccc2)c1C
UACC-62 [1]
  Activity: 94.24%
SK-MEL-5
  Activity: 94.75%
SN12C
  Activity: 94.4%
CAKI-1
  Activity: 102.08%
786-0
  Activity: 103.46%
A498 [2]
  Activity: 101.7%
OVCAR-8
  Activity: 95.17%
OVCAR-3
  Activity: 116.22%
HCT-15
  Activity: 97.16%
HCT-116
  Activity: 93.75%
NCI-H23
  Activity: 97.67%
EKVX
  Activity: 115.74%
A549
  Activity: 98.55%
RPMI-8226
  Activity: 100.95%
SK-MEL-28
  Activity: 99.72%
U-251
  Activity: 102.44%
SF-268
  Activity: 106.58%
KM12 [3]
  Activity: 109.29%
NCI-H460
  Activity: 102.18%

## Cc1nc(SCC(=O)Nc2nc(-c3ccc(Cl)cc3)cs2)n(Nc2ccccc2)c1C
UACC-62 [1]
  Activity: 34.83%
SK-MEL-5
  Activity: 10.19%
SN12C
  Activity: 39.25%
CAKI-1
  Activity: 36.74%
786-0
  Activity: 54.27%
A498 [2]
  Activity: 74.31%
OVCAR-8
  Activity: 31.91%
OVCAR-3
  Activity: 61.29%
KM12 [4]
  GI50: 2.95 µM
  LC50 (concentration killing 50% of cells): 41.4 µM
  TGI: 14 µM
NCI-H522
  GI50: 2.54 µM
  LC50 (50% lethal concentration): 66.5 µM
  TGI: 13.7 µM
HOP-62
  GI50: 3.06 µM
  LC50: 31.7 µM
  TGI: 9.63 µM
HCT-15
  Activity: 57.63%
HCT-116
  Activity: 29.45%
NCI-H23
  Activity: 12.2%
EKVX
  Activity: 34.55%
A549
  Activity: 28.85%
SK-MEL-28
  Activity: 54.29%
U-251
  Activity: 36.61%
SF-268
  Activity: 56.4%
KM12 [3]
  Activity: 57.14%
NCI-H460
  Activity: 52.96%
BT-549
  GI50: 7.02 µM
  LC50: 51.8 µM
  TGI: 20.9 µM
MDA-MB-231
  GI50: 3.01 µM
  TGI: 15.2 µM
MDA-MB-231; read-out: LC50 (the source's name)
  CC50: 57.8 µM
SK-OV-3
  GI50: 5.91 µM
  LC50 (50% lethal concentration): 47.4 µM
  TGI: 19.8 µM
OVCAR-5
  GI50: 2.65 µM
  LC50: 54.2 µM
  TGI: 13.5 µM
IGROV-1
  GI50: 3.36 µM
  LC50 (concentration killing 50% of cells): > 100 µM
  TGI: 20.6 µM
UACC-257
  GI50: 3.07 µM
  LC50: > 100 µM
  TGI: 17 µM
UACC-62 [5]
  GI50: 3.09 µM
  LC50: 50.3 µM
  TGI: 16.1 µM
MDA-MB-435
  GI50: 3.25 µM
  LC50 (concentration killing 50% of cells): > 100 µM
  TGI: 21.8 µM
M14
  GI50: 3.69 µM
  LC50: 51.2 µM
  TGI: 16 µM
LOX IMVI
  GI50: 1.78 µM
  LC50 (50% lethal concentration): 7.79 µM
  TGI: 3.72 µM
TK-10
  GI50: 3.65 µM
  LC50 (50% lethal concentration): 40.7 µM
  TGI: 13.8 µM
ACHN
  GI50: 3.67 µM
  LC50 (concentration killing 50% of cells): 51.5 µM
  TGI: 14.1 µM
A498 [6]
  GI50: 2.24 µM
  LC50: 35.8 µM
  TGI: 10.5 µM
